How the values were obtained:
[1] = biological target: T1, GST-tagged KRAS G12D (2-169) (Homo sapiens, UniProt P01116, G12D); assay: Nucleotide exchange assay (NEA), HTRF of SOS-mediated GTP-DY-647P1 binding; format: biochemical; conditions: 5 nM GST-KRAS G12D, 20 nM SOScat, 150 nM GTP; compound 1 h at RT
T1 construct: GST-tagged KRAS^G12D (2-169, Reaction Biology, MSC-11-539); purchased Reaction Biology MSC-11-539 (KRAS G12D); MSC-11-502 (SOS1cat)
In short: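 SOS1cat (564-1049)-driven loading of GTP-DY-647P1 onto KRAS G12D, read by HTRF with anti-GST Tb cryptate donor; compound preincubated with KRAS 1 h at RT. Final 5 nM KRAS, 20 nM SOScat, 150 nM GTP, pH 7.3 HEPES buffer; read up to 90 min at RT. Blanked to no-SOS1; 4-parameter fit of % inhibition.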

KRAS G12D/RAF1 = biological target: T2, KRAS G12D/RAF1 (Homo sapiens, UniProt P01116, G12D); assay: Protein-protein interaction (PPI) HTRF assay KRAS G12D/RAF1; format: binding; conditions: KRAS G12D/RAF1, GppNHp-loaded KRAS; 30 minutes pre-incubation
T2 construct: KRAS (1-169) proteins were expressed in E. coli at 18° C; His6-MBP (N, cleaved yes); made in house; host or cells: E. coli
In short: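 Biotinylated GppNHp-loaded RAS (1-169) on streptavidin-d2 acceptor and His-RAF1 RBD (52-131) on anti-His Tb donor, each prepared at 16 nM in pH 7.5 Tris buffer. Compound preincubated with RAS 30 min, then RAF1 added for 1 h at room temperature. IC50 from HTRF 665/615 ratio, normalized to no compound (0%) and untagged RAF1 (100%).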

KRAS G12V/RAF1 = biological target: T3, KRAS G12V/RAF1 (Homo sapiens, UniProt P01116, G12V); assay: Protein-protein interaction (PPI) HTRF assay KRAS G12V/RAF1; format: binding; conditions: KRASG12V/RAF1
T3 construct: KRAS (1-169) proteins were expressed in E. coli at 18° C; His6-MBP (N, cleaved yes); made in house; host or cells: E. coli
Protocol: (§1) Biotinylated KRAS wt and KRAS G12DNV proteins were expressed and purified in conditions similar to those previously reported (Tran, et al., 2021) (Zhang, et al., 2020). Briefly, KRAS (1-169) proteins were expressed in E. coli at 18° C. with an upstream TEV cleavage site (ENLFYQS) followed an Avi tag sequence ([…]). KIRAS expression constructs contained both a His6 and maltose-binding protein (MBP) tags at the N-terminus for Ni-NTA column purification prior to overnight TEV cleavage and MBP column purification. The avi-tagged NRAS expression construct contained both a His6 tag and SUMO cleavage sige at the N-terminus for Ni-NTA column purification followed by His-ULP1 digestion overnight. All avi-tagged RAS proteins were dialyzed into buffer containing ATP, biotin, and BirA followed by purification over a second Ni-NTA column and then run over a size exclusion HiLoad™ 26/600 Superdex™ column in 20 mM HEPES, pH 7.5, 300 mM NaCl, 5 mM MgCl2, and 1 mM TCEP. Fractions containing the protein of interest were pooled, concentrated, and confirmed by intact mass spectrometry. To prepare ‘GTP’ loaded KRAS and NRAS, biotinylated KRAS or NRAS was nucleotide exchanged from GDP-bound protein to GppNHp-bound (Jena Biosciences, NU-401-50) protein in the presence of alkaline phosphatase and excess GppNHp as previously described and the resulting nucleotide content was confirmed by HPLC reverse phase analytical chromatography (Donohue, et al., 2019) (Tran, et al., 2021).
(§2) His-tagged RAF1 (52-131) was similarly expressed in E. coli at 18° C. overnight with an upstream TEV cleavage site. His-tagged RAF1 expression construct contained both a His6 and MBP tags at the N-terminus for Ni-NTA column purification followed by MBP-tagged TEV digestion overnight. RAF1 protein samples were further purified over a MBP column followed by a Ni-NTA column and a second MBP column. The fractions containing the protein of interest were pooled, concentrated, and further purified over a HiLoad™ 16/600 Superdex™ 75 pg size exclusion column into 20 mM HEPES, pH8.0, 200 mM NaCl, 5 mM TCEP.
(§3) When RAS proteins are in the active GTP-bound conformation, they bind the effector protein RAF1 at the N-terminus Ras-binding domain (RBD, residues 52-131) (Tran, et al., 2021). Homogenous time resolved fluorescence (HTRF) was used to monitor the interaction between wt or mutant KRAS and RAF1 or wt NRAS and RAFT. Compounds were assayed in the presence of KRAS G12D/V and RAF1 versus wt KRAS to assess activity against mutant and w.t. KRAS. Similarly, compounds were then assayed in the presence of w.t. NRAS and RAF1 to assess RAS isoform selectivity. In all assay formats, His-tagged RAF1 protein was incubated with the HTRF donor, anti-6His Tb Cryptate gold (Cisbio 61DB10RDF), and biotinylated RAS proteins were incubated with the HTRF acceptor, streptavidin-d2 (CisBio 610SADLA). The intensity of the fluorescence signal emitted is proportional to binding between the two proteins. The donor solution was prepared by mixing 16 nM His-tagged RAF1 in protein dilution buffer with 1:100 anti-6His Tb cryptate in PPI-Terbium detection buffer. 16 nM biotinylated RAS protein was diluted into protein dilution buffer (50 mM Tris-HCl pH 7.5, 150 mM NaCl, 0.1 mM MgCl2, 1 mM TCEP, 0.005% Tween20) and mixed with 1:2000 Streptavidin-d2 diluted in PPI-Terbium detection buffer (CisBio 61DB10RDF). 50× compound in DMSO was mixed with 16 nM KRAS-acceptor solution and incubated for 30 minutes at room temperature. After compound pre-incubation with KRAS, the RAF1 donor solution was added to the KRAS-acceptor solution and incubated for 1 hour at room temperature. The fluorescence signal emitted was monitored at 665 nm and 615 nm using an Envision multimode plate reader. The HTRF ratio (665/615) was calculated and normalized to 0% inhibition in the absence of compound and 100% inhibition in the presence of untagged RAF1 protein. […]

wtKRAS/RAF1 = biological target: T4, wtKRAS/RAF1 (Homo sapiens, UniProt P01116); assay: Protein-protein interaction (PPI) HTRF assay w.t.KRAS/RAF1; format: binding
T4 construct: KRAS (1-169) proteins were expressed in E. coli at 18° C; His6-MBP (N, cleaved yes); made in house; host or cells: E. coli
Protocol: as §1, §2, §3

wtNRAS/RAF1 = biological target: T5, wtNRAS/RAF1 (Homo sapiens, UniProt P01111); assay: Protein-protein interaction (PPI) HTRF assay w.t.NRAS/RAF1; format: binding
T5 construct: (1-169); His6-SUMO (N, cleaved yes); made in house; host or cells: E. coli (printed for the KRAS and RAF1 constructs; not explicitly for NRAS)
Protocol: as §1, §2, §3

[2] = system: AGS (KRAS G12D) cells, phospho-ERK; assay: pERK In Cell Western (ICW) assay (Method B); format: cell-based; conditions: Homo sapiens, 3 hours
Protocol: pERK ICW is a high throughput screening assay to evaluate the cellular potency of mutant KRAS small molecule inhibitors. KRAS mutant cell line AGS (KRAS^G12D) were purchased from ATCC and maintained in DMEM and RPMI medium supplemented with 10% fetal bovine serum and Penicillin/Streptomycin.
Cells grown in exponential phase were trypsinized, resuspended in fresh media, and viable cells were counted using a cell counter with Trypan Blue (BioRad TC20). Cells were seeded into 384-well plate (Greiner 781091) at density of 5,000 cells/well for AGS and allowed to grow overnight in a 37° C. CO2 incubator. The next day, compounds were dispensed into wells with a ½ log, 10-point serial dilution and top concentration of 10 μM using Tecan D300e dispenser and incubated for 3 hours in a 37° C. CO2 incubator. Cells were then fixed with paraformaldehyde (Electron Microscopy Sciences, 15710, 4% final concentration) for 30 min, permeabilized with wash buffer (1×PBS+0.1% Triton X-100) for 30 min and blocked with Odyssey blocking buffer (Li—COR 927-70001) for 1 hour, all at room temperature (RT). Phospho-ERK antibody (CST 4370L) was diluted 1:500 in Odyssey blocking+0.2% Tween 20 and incubated with cells overnight at 4° C. The next day, plates were washed 5× with wash buffer, incubated with IRDye 800 CW, Goat anti-Rabbit secondary antibody (Li—COR 926-32211, 1:500) and DRAQ5 (CST 4084L, 1:5,000) diluted in Odyssey blocking+0.2% Tween 20 for 1 hour, washed 5×, and imaged on an Odyssey CLx imaging system.
For data analysis, signal intensities from 800 (phosphor-ERK) and 700 (DRAQ5) channels were extracted, and phospho-ERK signals were normalized to DRAQ5 signals for each well and percent of DMSO control values were computed. Data were then imported into Graphpad Prism to compute half-maximal inhibitory concentrations (IC50) using a 4-parameter variable slope model. Z-factor for each plate was computed from signals derived from wells treated with either DMSO or 5 μM of Trametinib. AGS pERK ICW (Method B) IC50 (uM) values of selected compounds are depicted in Table 2 with compounds having a value 0.001 uM to 0.01 uM as ++++; >0.01 uM to 0.1 uM as +++; >0.1 uM to 1 uM as ++; 1 uM to 10 uM as + and >10 uM as NA.

T1 sequence (P01116 2-169 isoform P01116-2 G12D): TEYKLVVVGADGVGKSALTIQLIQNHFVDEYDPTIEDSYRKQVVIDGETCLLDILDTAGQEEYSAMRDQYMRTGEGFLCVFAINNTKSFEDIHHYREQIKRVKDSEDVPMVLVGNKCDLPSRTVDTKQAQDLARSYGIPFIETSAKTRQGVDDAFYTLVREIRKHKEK
T5 sequence (P01111 1-169): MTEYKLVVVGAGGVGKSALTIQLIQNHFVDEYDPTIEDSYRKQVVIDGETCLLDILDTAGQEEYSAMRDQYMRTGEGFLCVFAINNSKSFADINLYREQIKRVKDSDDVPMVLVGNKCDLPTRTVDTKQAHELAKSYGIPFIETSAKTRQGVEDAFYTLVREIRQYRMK
T4 sequence (P01116 1-169 isoform P01116-2): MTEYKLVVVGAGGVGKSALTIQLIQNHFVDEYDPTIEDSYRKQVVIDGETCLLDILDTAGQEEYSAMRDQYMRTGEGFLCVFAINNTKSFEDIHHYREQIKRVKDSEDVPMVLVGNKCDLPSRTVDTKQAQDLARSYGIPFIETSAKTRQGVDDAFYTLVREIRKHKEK
T2 sequence (P01116 1-169 isoform P01116-2 G12D): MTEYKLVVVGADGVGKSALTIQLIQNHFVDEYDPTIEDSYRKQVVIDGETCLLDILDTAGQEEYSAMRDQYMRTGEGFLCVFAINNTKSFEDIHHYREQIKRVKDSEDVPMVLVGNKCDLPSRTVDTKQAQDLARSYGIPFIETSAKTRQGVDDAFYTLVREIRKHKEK
T3 sequence (P01116 1-169 isoform P01116-2 G12V): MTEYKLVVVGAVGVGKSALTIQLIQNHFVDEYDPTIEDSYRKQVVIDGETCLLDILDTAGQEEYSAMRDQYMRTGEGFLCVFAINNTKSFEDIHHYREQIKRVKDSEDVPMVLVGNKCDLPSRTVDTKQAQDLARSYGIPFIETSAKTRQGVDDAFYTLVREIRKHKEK

SMILES	IC50 [1]	IC50 (KRAS G12D/RAF1)	IC50 (KRAS G12V/RAF1)	IC50 (wtKRAS/RAF1)	IC50 (wtNRAS/RAF1)	IC50 [2]
C[C@@]1(O)CCCN(c2nc(OC[C@@]34CCCN3C[C@H](F)C4)nc3c2COC2(CCc4c(Cl)cccc42)C3)C1 (stereo partly drawn) [Compound 23, (3R)-1-(4-chloro-2′-(((2R,7aS)-2-fluorotetrahydro-1H-pyrrolizin-7a(5H)-yl)methoxy)-2,3,5′,8′-tetrahydrospiro[indene-1,7′-pyrano[4,3-d]pyrimidin]-4′-yl)-3-methylpiperidin-3-ol]	1 to 20 µM	10 to 100 µM	10 to 100 µM	> 100 µM	> 100 µM	
O=C1NC(=O)C2(CCCN(c3nc(OC[C@@]45CCCN4C[C@H](F)C5)nc4c3COC3(CCc5c(Cl)cccc53)C4)C2)N1 (stereo partly drawn) [Compound 24, 9-[4′-chloro-2-[[(2R,8S)-2-fluoro-1,2,3,5,6,7-hexahydropyrrolizin-8-yl]methoxy]spiro[5,8-dihydropyrano[4,3-d]pyrimidine-7,1′-indane]-4-yl]-1,3,9-triazaspiro[4.5]decane-2,4-dione]	0.1 to 1 µM	10 to 100 µM	10 to 100 µM	10 to 100 µM	> 100 µM	
CN(C)C(=O)c1cc2n(n1)CCCN(c1nc(OC[C@@]34CCCN3C[C@H](F)C4)nc3c1CN(C)[C@]1(CCCc4ccc(O)cc41)C3)C2 [Compound 39B, 5-[(7R)-2-[[(2R,8S)-2-fluoro-1,2,3,5,6,7-hexahydropyrrolizin-8-yl]methoxy]-7′-hydroxy-6-methyl-spiro[5,8-dihydropyrido[4,3-d]pyrimidine-7,1′-tetralin]-4-yl]-N,N-dimethyl-4,6,7,8-tetrahydropyrazolo[1,5-a][1,4]diazepine-2-carboxamide]	1 to 20 µM					> 10 µM
CN1Cc2c(nc(OC[C@@]34CCCN3C[C@H](F)C4)nc2N2CCC[C@]3(C2)NC(=O)NC3=O)C[C@]12CCc1cccc(F)c12 [Compound 66, (5R)-9-[(7S)-7′-fluoro-2-[[(2R,8S)-2-fluoro-1,2,3,5,6,7-hexahydropyrrolizin-8-yl]methoxy]-6-methyl-spiro[5,8-dihydropyrido[4,3-d]pyrimidine-7,1′-indane]-4-yl]-1,3,9-triazaspiro[4.5]decane-2,4-dione]	0.01 to 0.1 µM					> 10 µM
CN1Cc2c(nc(OC[C@@]34CCCN3C[C@H](F)C4)nc2N2CCC[C@]3(C2)NC(=O)NC3=O)C[C@]12CCc1c(F)ccc(F)c12 [Compound 67, (5R)-9-[(7S)-4′,7′-difluoro-2-[[(2R,8S)-2-fluoro-1,2,3,5,6,7-hexahydropyrrolizin-8-yl]methoxy]-6-methyl-spiro[5,8-dihydropyrido[4,3-d]pyrimidine-7,1′-indane]-4-yl]-1,3,9-triazaspiro[4.5]decane-2,4-dione]	0.01 to 0.1 µM					> 10 µM
CN1Cc2c(nc(OC[C@@]34CCCN3C[C@H](F)C4)nc2N2CCC[C@]3(C2)NC(=O)NC3=O)C[C@]12CCc1c(F)cccc12 [Compound 68, (5R)-9-[(7S)-4′-fluoro-2-[[(2R,8S)-2-fluoro-1,2,3,5,6,7-hexahydropyrrolizin-8-yl]methoxy]-6-methyl-spiro[5,8-dihydropyrido[4,3-d]pyrimidine-7,1′-indane]-4-yl]-1,3,9-triazaspiro[4.5]decane-2,4-dione]	0.01 to 0.1 µM					> 10 µM
CN1Cc2c(nc(OC[C@@]34CCCN3C[C@H](F)C4)nc2N2CCC[C@]3(C2)NC(=O)NC3=O)C[C@]12CCc1cccc(Cl)c12 [Compound 70, (5R)-9-[(7S)-7′-chloro-2-[[(2R,8S)-2-fluoro-1,2,3,5,6,7-hexahydropyrrolizin-8-yl]methoxy]-6-methyl-spiro[5,8-dihydropyrido[4,3-d]pyrimidine-7,1′-indane]-4-yl]-1,3,9-triazaspiro[4.5]decane-2,4-dione]	0.01 to 0.1 µM					1 to 10 µM
